Test system: A375 melanoma xenografts
Experiment: tumor growth of subcutaneously growing A375 melanoma xenografts
Format: in vivo, nacked mice
Settings: i.v.; doxorubicin 2×8 mg/kg on days 8 and 15; FIG. 5
Method: Animals: nacked mice; stock solution of doxorubicin (2 mg/ml); stock solution of 1:6 mg/ml in 10 mM sodium phosphate, 5% D-glucose (pH 6.4), control (buffer): glucose phosphate buffer (10 mM sodium phosphate, 5% D-glucose—pH 6.4) on days 8 and 15.

COc1cccc2c1C(=O)c1c(O)c3c(c(O)c1C2=O)C[C@@](O)(C(=O)CO)C[C@@H]3O[C@H]1C[C@H](N)[C@H](O)[C@H](C)O1 [Doxorubicin, doxorubicin]
relative tumor volume compared to treatment with the derivative according to the invention: approximately three times larger tumor volume

From US7803903B2, “Protein-binding doxorubicin peptide derivatives” (priority 2003, dated 2010)
